From US11541050B2, “Pyrimidine derivatives for the treatment of viral infections” (JANSSEN SCIENCES IRELAND UC, priority 2011, dated 2023)

Experiments:
[1] = test system: HCV replicon in Huh-7 luc/neo cells; experiment: Suppression of HCV replicon replication by conditioned media from compound-treated PBMC; format: cell-based, HCV type 1 b; details: Hepatitis C virus; conditioned media from compound-treated PBMC on Huh-7 luc/neo replicon cells (compounds 74 onward); read-out: PBMC HUH-7 EC50
In short: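 Human PBMC (≥2 donors, RPMI + 10% human AB serum, 2×10^5 cells/well) incubated overnight with compounds; supernatant transferred onto Huh-7 luc/neo HCV 1b replicon cells. After 24 h, replication read as luciferase activity. Recombinant interferon α-2a served as standard.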

[2] = biological target: T1, human TLR8 (wild type sequence) (Homo sapiens, UniProt Q9NR97); experiment: TLR8 cellular NFκB-luc reporter assay, wild type TLR8; format: cell-based; set-up: unit not given here; details: lowest effective concentration, wild type TLR8 (compounds 74 onward)
T1 construct: expressed in transfected cells; host or cells: HEK293
T1 sequence (Q9NR97 27-1041): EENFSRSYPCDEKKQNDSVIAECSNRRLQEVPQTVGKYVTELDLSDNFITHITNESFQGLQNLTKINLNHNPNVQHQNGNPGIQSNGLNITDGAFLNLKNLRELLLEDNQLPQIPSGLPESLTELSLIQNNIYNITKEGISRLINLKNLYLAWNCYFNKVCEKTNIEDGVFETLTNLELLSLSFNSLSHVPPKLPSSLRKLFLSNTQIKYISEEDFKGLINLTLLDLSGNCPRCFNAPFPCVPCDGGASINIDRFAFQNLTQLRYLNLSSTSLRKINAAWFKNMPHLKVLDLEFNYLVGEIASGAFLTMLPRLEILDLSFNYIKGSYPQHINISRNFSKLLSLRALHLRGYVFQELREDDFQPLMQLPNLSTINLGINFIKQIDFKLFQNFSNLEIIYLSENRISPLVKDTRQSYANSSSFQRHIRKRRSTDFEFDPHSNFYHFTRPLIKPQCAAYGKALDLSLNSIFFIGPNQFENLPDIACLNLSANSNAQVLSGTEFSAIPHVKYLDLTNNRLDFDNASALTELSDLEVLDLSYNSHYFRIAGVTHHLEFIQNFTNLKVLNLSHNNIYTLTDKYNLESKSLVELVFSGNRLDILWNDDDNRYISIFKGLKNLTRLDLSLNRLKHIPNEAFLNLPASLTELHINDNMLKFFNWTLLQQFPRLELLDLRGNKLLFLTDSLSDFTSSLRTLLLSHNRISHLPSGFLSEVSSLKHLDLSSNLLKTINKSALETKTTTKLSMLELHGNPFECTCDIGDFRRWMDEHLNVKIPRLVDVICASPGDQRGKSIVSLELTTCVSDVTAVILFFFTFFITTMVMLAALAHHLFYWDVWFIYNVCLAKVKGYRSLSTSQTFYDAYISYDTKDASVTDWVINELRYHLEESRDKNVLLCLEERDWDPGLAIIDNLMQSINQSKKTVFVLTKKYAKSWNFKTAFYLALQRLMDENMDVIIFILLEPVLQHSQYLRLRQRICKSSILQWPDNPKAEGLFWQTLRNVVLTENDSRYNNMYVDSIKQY
In short: (§1)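 First, HEK293 cells were co-transfected with TLR7 or TLR8 (native or LRR2-deletion) and NFκB-luc and cultured 48 h. Next, cells were incubated with compound for 6 h at 37 °C. Finally, luciferase was read; LEC came from dose-response curves run in quadruplicate.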

[3] = biological target: T2, human TLR7 (wild type sequence) (Homo sapiens, UniProt Q9NYK1); experiment: TLR7 cellular NFκB-luc reporter assay, wild type TLR7; format: cell-based; set-up: unit not given here; details: lowest effective concentration, wild type TLR7 (compounds 74 onward)
T2 construct: expressed in transfected cells; host or cells: HEK293
T2 sequence (Q9NYK1 27-1049): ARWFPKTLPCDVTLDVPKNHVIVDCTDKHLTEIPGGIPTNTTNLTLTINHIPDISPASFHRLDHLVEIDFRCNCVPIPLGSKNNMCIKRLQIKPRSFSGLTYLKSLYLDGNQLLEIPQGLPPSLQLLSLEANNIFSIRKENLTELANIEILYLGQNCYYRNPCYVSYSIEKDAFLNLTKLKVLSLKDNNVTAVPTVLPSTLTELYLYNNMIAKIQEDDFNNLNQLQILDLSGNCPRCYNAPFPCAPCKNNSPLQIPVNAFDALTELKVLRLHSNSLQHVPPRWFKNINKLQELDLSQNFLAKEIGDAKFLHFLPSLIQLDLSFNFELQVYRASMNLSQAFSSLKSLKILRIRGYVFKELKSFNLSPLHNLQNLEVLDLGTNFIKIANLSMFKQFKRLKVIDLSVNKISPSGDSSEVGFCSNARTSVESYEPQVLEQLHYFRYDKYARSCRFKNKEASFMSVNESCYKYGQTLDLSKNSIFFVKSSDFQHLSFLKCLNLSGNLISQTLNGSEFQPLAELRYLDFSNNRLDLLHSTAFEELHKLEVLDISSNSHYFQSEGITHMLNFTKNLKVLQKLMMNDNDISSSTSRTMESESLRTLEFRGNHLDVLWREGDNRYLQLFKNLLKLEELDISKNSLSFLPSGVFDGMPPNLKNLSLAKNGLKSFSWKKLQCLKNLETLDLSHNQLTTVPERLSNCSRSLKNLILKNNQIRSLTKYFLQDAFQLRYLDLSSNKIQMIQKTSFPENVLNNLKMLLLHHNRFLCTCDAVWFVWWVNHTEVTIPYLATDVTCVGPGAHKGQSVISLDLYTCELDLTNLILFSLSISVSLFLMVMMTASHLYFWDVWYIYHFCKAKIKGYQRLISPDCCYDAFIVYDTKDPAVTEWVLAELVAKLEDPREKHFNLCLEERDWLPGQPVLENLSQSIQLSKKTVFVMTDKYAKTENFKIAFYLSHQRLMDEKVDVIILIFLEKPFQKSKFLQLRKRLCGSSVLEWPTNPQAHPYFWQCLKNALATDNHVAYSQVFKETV
In short: as §1

SMILES	EC50 [1] [µM]	TLR 8 wt LEC [2]	TLR 7 wt LEC [3]
CCCCNc1nc(N)ncc1OCCCc1cccc(OC)c1 [Compound 146]	0.707	2.300	1.230
CCCCNc1nc(N)ncc1OCCCc1cc(OC)cc(OC)c1 [Compound 147]	0.746	4.340	2.520
CCCCNc1nc(N)ncc1OCCCc1cc(OC)ccc1OC [Compound 148]	0.634	4.850	0.691
CCCCNc1nc(N)ncc1OCCCc1ccccc1OC [Compound 149]	0.703	5.850	2.080
CCCCNc1nc(N)ncc1OCCCc1cccc(OC)c1OC [Compound 150]	0.689	4.310	1.180
CCCCNc1nc(N)ncc1OCCCc1ccc2c(c1)OCO2 [Compound 151]	0.188	1.860	0.431
CCCCNc1nc(N)ncc1OCCCc1ccc(Cl)cc1Cl [Compound 152]	3.35	>25	5.410
CCCC[C@@H](CO)Nc1nc(N)ncc1OCCCc1ccccc1 [Compound 154]	3.02	2.960	3.710
CCCCNc1nc(N)ncc1OCc1nc(-c2ccccc2)no1 [Compound 155]	3.44	4.560	2.660
CCCCNc1nc(N)ncc1OCc1noc(-c2ccccc2)n1 [Compound 156]	0.697	2.060	0.828
CCCCNc1nc(N)ncc1OCc1cc2ccccc2n(CCC(C)C)c1=O [Compound 158]	3.31	>25	3.080
CCCCNc1nc(N)ncc1OCc1cc2c(cn1)[nH]c1ccccc12 [Compound 159]	0.018	1.080	0.159
CCCCNc1nc(N)ncc1OCCCc1cc(OC)c(OC)c(OC)c1 [Compound 160]	0.634	2.710	0.756
CCCCNc1nc(N)ncc1OCCCc1cc(OC)c(OC)cc1OC [Compound 161]	0.629	3.480	0.672
CCCCNc1nc(N)ncc1OCCCc1ccc(OC)cc1OC [Compound 163]	0.728	2.500	0.573
CCCCNc1nc(N)ncc1OCCCc1ccc(OC)c(OC)c1OC [Compound 164]	0.769	23.030	0.606
CCC[C@@H](CCO)Nc1nc(N)ncc1OCCCc1ccccc1 [Compound 165]	0.187	1.800	0.683
CCCCNc1nc(N)ncc1OCc1cc2ccccc2cn1 [Compound 166]	0.046	0.980	0.128
CCCCNc1nc(N)ncc1OCCC(c1ccccc1)c1ccccc1 [Compound 167]	0.764	>25	1.200

SMILES	EC50 [1] [µM]	TLR 8 wt LEC [2]	TLR 7 wt LEC [3]
CCCC(C)Nc1nc(N)nc(C)c1OCc1ccccc1 (stereo not drawn) [Compound 168]	11.7	14.900	>25
CCCCNc1nc(N)ncc1OCCCc1ccc(Cl)c(Cl)c1 [Compound 169]	3.13	>25	5.110
CCCCNc1nc(N)ncc1OCc1cc(C(=O)OCC)ccn1 [Compound 170]	2.63	1.750	0.319
CCCCNc1nc(N)ncc1OCc1cc(OC)ccn1 [Compound 171]	0.158	1.060	0.396
CCCCNc1nc(N)ncc1OCc1cc(OC2Cc3ccccc3C2)c(OC)cn1 [Compound 172]	0.045	2.000	0.187
CCCCNc1nc(N)ncc1OCc1cc(OC2CCCC2)c(OC)cn1 [Compound 173]	0.086	2.550	0.222
CCCCNc1nc(N)ncc1OCc1cc(OC2CCOC2)c(OC)cn1 (stereo not drawn) [Compound 174]	0.052	2.610	0.447
CCCCNc1nc(N)ncc1OCc1cc(OCC2CC2)c(OC)cn1 [Compound 175]	0.167	2.480	0.367
CCCCNc1nc(N)ncc1OCc1cccc(C(N)=O)n1 [Compound 176]	0.173	0.463	0.868
CCCCNc1nc(N)ncc1OCCCc1ccncc1 [Compound 177]	0.197	0.819	0.795
CCCCNc1nc(N)ncc1OCc1ncccc1OC [Compound 179]	0.021	0.142	0.078
CCCCNc1nc(N)ncc1OCc1cc(C(F)(F)F)n(C)n1 [Compound 181]	0.096	1.210	0.146
CCCCNc1nc(N)ncc1OCc1nn(C)c2cc(OC)c(OC)cc12 [Compound 183]	0.023	1.580	0.056
CCCCNc1nc(N)ncc1OCc1cccc2cccnc12 [Compound 184]	0.053	1.650	0.157
CCCC(C)Nc1nc(N)ncc1OCc1ccc2ccccc2n1 (stereo not drawn) [Compound 185]	0.488	2.340	0.743
CCCC[C@@H](CCO)Nc1nc(N)ncc1OCc1ccc2ccccc2n1 [Compound 186]	0.065	0.680	0.122
CCC[C@@H](CCO)Nc1nc(N)ncc1OCc1ncc(C)c(OC)c1C [Compound 187]	0.022	0.178	0.074
CCC[C@@H](CCO)Nc1nc(N)ncc1OCc1ccc2ccccc2n1 [Compound 188]	0.086	0.530	0.237
CCCCCC(C)Nc1nc(N)ncc1OCc1ccc2ccccc2n1 (stereo not drawn) [Compound 189]	17.6	>25	11.990
